Patent US10743540B2, “3-amino-1,2,4-triazine derivatives and their use for controlling undesired plant growth” (BAYER CROPSCIENCE AKTIENGESELLSCHAFT, priority 2016, dated 2020)

Key:
Format in all cases: in vivo
[1] = system: ALOMY: Alopecurus myosuroides; assay: Post-emergence herbicidal effect; conditions: application rate 320 g/ha, treated at one-leaf stage, assessed visually after about 3 weeks, 100% = plants have died
Description: (§1) [table] 2. Post-Emergence Herbicidal Effect and Crop Plant Compatibility Seeds of monocotyledonous and dicotyledonous weed and crop plants are laid out in sandy loam soil in wood-fiber pots, covered with soil and cultivated in a greenhouse under good growth conditions. 2 to 3 weeks after sowing, the test plants are treated at the one-leaf stage. The compounds of the invention, formulated in the form of wettable powders (WP) or as emulsion concentrates (EC), are then sprayed onto the green parts of the plants as aqueous suspension or emulsion at a water application rate equating to 600 to 800 L/ha with addition of 0.2% wetting agent. After the test plants have been left to stand in the greenhouse under optimal growth conditions for about 3 weeks, the action of the preparations is assessed visually in comparison to untreated controls (herbicidal action in percent (%): 100% activity=the plants have died, 0% activity=like control plants).

STEME: Stellaria media [2] = assay: Post-emergence herbicidal effect; conditions: application rate 320 g/ha, treated at one-leaf stage, assessed visually after about 3 weeks, 100% = plants have died
Description: as §1

[3] = system: AMARE: Amaranthus retroflexus; assay: Post-emergence herbicidal effect; conditions: application rate 320 g/ha, treated at one-leaf stage, assessed visually after about 3 weeks, 100% = plants have died
Description: as §1

[4] = system: ALOMY: Alopecurus myosuroides; assay: Pre-emergence herbicidal effect; conditions: application rate 320 g/ha, scored visually after 3 weeks, 100% = plants have died, 0% = like control plants
Description: (§2) 1. Pre-Emergence Herbicidal Effect and Crop Plant Compatibility Seeds of monocotyledonous and dicotyledonous weed plants and crop plants are laid out in sandy loam soil in wood-fiber pots and covered with soil. The compounds of the invention, formulated in the form of wettable powders (WP) or as emulsion concentrates (EC), are then applied to the surface of the covering soil as aqueous suspension or emulsion at a water application rate equating to 600 to 800 L/ha with addition of 0.2% wetting agent. After the treatment, the pots are placed in a greenhouse and kept under good growth conditions for the trial plants. The damage to the test plants is scored visually after a test period of 3 weeks by comparison with untreated controls (herbicidal activity in percent (%): 100% activity=the plants have died, 0% activity=like control plants). [table]

[5] = system: ABUTH: Abutilon theophrasti; assay: Pre-emergence herbicidal effect; conditions: application rate 320 g/ha, scored visually after 3 weeks, 100% = plants have died, 0% = like control plants
Description: as §2

[6] = system: POLCO: Polygonum convolvulus; assay: Pre-emergence herbicidal effect; conditions: application rate 320 g/ha, scored visually after 3 weeks, 100% = plants have died, 0% = like control plants
Description: as §2

[7] = system: MATIN: Matricaria inodora; assay: Pre-emergence herbicidal effect; conditions: application rate 320 g/ha, scored visually after 3 weeks, 100% = plants have died, 0% = like control plants
Description: as §2

[8] = system: ECHCG: Echinochloa crus-galli; assay: Pre-emergence herbicidal effect; conditions: application rate 320 g/ha, scored visually after 3 weeks, 100% = plants have died, 0% = like control plants
Description: as §2

SETVI: Setaria viridis = assay: Pre-emergence herbicidal effect; conditions: application rate 320 g/ha, scored visually after 3 weeks, 100% = plants have died, 0% = like control plants
Description: as §2

VERPE: Veronica persica [9] = assay: Post-emergence herbicidal effect; conditions: application rate 320 g/ha, treated at one-leaf stage, assessed visually after about 3 weeks, 100% = plants have died
Description: as §1

VIOTR: Viola tricolor = assay: Post-emergence herbicidal effect; conditions: application rate 320 g/ha, treated at one-leaf stage, assessed visually after about 3 weeks, 100% = plants have died
Description: as §1

[10] = system: LOLMU: Lolium multiflorum; assay: Pre-emergence herbicidal effect; conditions: application rate 320 g/ha, scored visually after 3 weeks, 100% = plants have died, 0% = like control plants
Description: as §2

STEME: Stellaria media [11] = assay: Pre-emergence herbicidal effect; conditions: application rate 320 g/ha, scored visually after 3 weeks, 100% = plants have died, 0% = like control plants
Description: as §2

VERPE: Veronica persica [12] = assay: Pre-emergence herbicidal effect; conditions: application rate 320 g/ha, scored visually after 3 weeks, 100% = plants have died, 0% = like control plants
Description: as §2

Compound	Herbicidal activity with respect to [%] ALOMY [1] [%]	Herbicidal activity with respect to [%] STEME (STEME: Stellaria media [2]) [%]	Herbicidal activity with respect to [%] AMARE [3] [%]	Herbicidal activity with respect to [%] ALOMY [4] [%]	Herbicidal activity with respect to [%] ABUTH [5] [%]	Herbicidal activity with respect to [%] POLCO [6] [%]	Herbicidal activity with respect to [%] MATIN [7] [%]	Herbicidal activity with respect to [%] ECHCG [8] [%]	Herbicidal activity with respect to [%] SETVI (SETVI: Setaria viridis) [%]	Herbicidal activity with respect to [%] VERPE (VERPE: Veronica persica [9]) [%]	Herbicidal activity with respect to [%] VIOTR (VIOTR: Viola tricolor) [%]	Herbicidal activity with respect to [%] LOLMU [10] [%]	Herbicidal activity with respect to [%] STEME (STEME: Stellaria media [11]) [%]	Herbicidal activity with respect to [%] VERPE (VERPE: Veronica persica [12]) [%]
CNC(=O)c1nnc(N[C@@H]2CCc3ccc(C)cc32)nc1N [Example 1.76]	80	100	80	100	100	100	100	100	100					
CS(=O)(=O)c1nnc(N[C@@H]2CCCc3ccccc32)nc1N [Example 1.66]		100		80	100	100	100	100	100	100	90	100	100	100
Cc1ccc2c(c1)[C@H](Nc1nnc(C(F)(F)F)c(N)n1)CC2 [Example 1.31]		90		100		100	100	100	100			100	100	100
CNC(=O)c1nnc(N[C@H]2c3cc(C)ccc3C[C@@H]2C)nc1N [Example 1.41]			80	100		100	100	100	100	100	80	100	100	100
Nc1nc(NC2CCCc3cc(F)ccc32)nnc1C(F)(F)F (racemic) [Example 1.46]		100		90		100	100	100	100	80		90	100	100
Nc1nc(N[C@@H]2CCc3ccccc32)nnc1Cl [Example 1.59]		100				80		80	80	80		90	100	100
N#Cc1nnc(NC2CCOc3ccccc32)nc1N (racemic) [Example 1.60]		90	80							100			100	100
